# Test results published in patent publication US8173133B2, “Acyl pseudodipeptides which carry a functionalized auxiliary arm” (OM Pharma, priority 1999, dated 2012).
# How the values were obtained:
# [1] = system: murine macrophage cells; experiment: nitric oxide production by murine macrophage cells (Griess); type: cell-based, C57/BL6 mice; settings: for Max concentration: concentration at maximum amplitude; for EC50 conc: concentration corresponding to 50% of maximum amplitude; for Min concentration: lowest concentration inducing a significant response
# From the text: Six-week old male C57/BL6 mice are killed by CO2 inhalation. The hip, femur, tibia and posterior appendage bones are removed. The bone marrow is extracted from the bone lumen by injecting Dulbecco's Modified Eagle Medium (DH medium) from the end portions which had been excised. The stem cells are washed and resuspended (approximate cell concentration 4000 cells/ml) in DH medium supplemented with 20% equine serum (SH) and 30% L929 cell supernatant. L929 is a murine fibroblast cell line the supernatant fluid of which is rich in growth factor for macrophage cells (M-CSF). The cell suspension is divided into Petri dishes which are incubated for 8 days in an incubator at 37° C. under 8% CO2 and a moisture saturated atmosphere.
# After 8 days, the stem cells have differentiated into mature macrophage cells. The macrophage cells are scraped off by rapid cooling, washed and resuspended in DH medium supplemented with 5% foetal calf serum (FCS), amino acids and antibiotics. The cell density is adjusted to 700 000 cells/ml.
# Products previously dissolved in DH medium supplemented with 5% FCS, amino acids and antibiotics are serially diluted directly in microtiter plates. The products are tested in triplicates and each microtiter plate comprises a negative control containing plain medium. The final volume in each well is 100 μl.
# 100 μl of cell suspension are added to diluted solutions of such products and the cells are incubated for 22 hours in an incubator at 37° C., under 8% CO2 and a moisture saturated atmosphere. At the end of the incubation period with the products, 100 μl of supernatant are withdrawn and the nitrite concentration is determined by running a Griess reaction.
# 100 μl of Griess reagent (5 mg/ml of sulfanilamide+0.5 mg/ml of N-(1-naphtylethylene diamine hydrochloride)) in 2.5% aq. phosphoric acid, are added to each well. The microtiter plates are read with a spectrophotometer at 562 nm wavelength against a reference sample at 690 nm. The nitrite concentration is proportional to nitric oxide content being formed. The nitrite content is determined based on a standard curve.
# The results are given as mean value±standard deviation and plotted as a dose versus response curve.
# From this dose versus response curve, 3 curve variables are computed:
# Max: maximum curve amplitude and corresponding concentration
# EC50: concentration corresponding to 50% of maximum amplitude
# Min: lowest concentration inducing a significant proliferation corresponding to the blank±3× standard deviation value
# Concentration values corresponding to EC50 and Min are determined from line segments joining different points on the curve.
# If the curve has no plateau phase but an ascending configuration for the highest concentration being tested, a “>” sign is shown before “Max” and “EC50” values.
# [2] = system: human peripheral blood mononuclear cells; experiment: inhibition of E. coli LPS-induced α TNF production in human peripheral blood mononuclear cells; type: cell-based; settings: product 10 μg/ml; for 50% inhibition LPS: LPS concentration at which α TNF production is 50% of control; for max. Inhibition LPS: LPS concentration corresponding to maximum inhibition
# Description: Mononuclear cells of peripheral blood are recovered from buffy coats of 6 healthy donors. Such buffy coat cells are resuspended and mononuclear cells are isolated by centrifugation on a Ficoll-Paque gradient (Amersham Pharmacia). Purified mononuclear cells are resuspended into RPMI-1640 medium supplemented with 10% FCS, antibiotics, mercaptoethanol and L-glutamine. Cell concentration is adjusted to 2×10^6 viable cells/ml.
# Product mediated Inhibition is determined by preincubating those products with mononuclear cells, and adding, 1 hour later, serially diluted solutions of LPS capable of inducing α TFN production. […] E. coli LPS is serially diluted (10-fold dilution) to be in the range of 1 to 0.00001 μg/ml
# 50 μl of 10 μg/ml dilute product solutions in RPMI 1640 medium are dispensed into a microtiter plate. Each assay (10 μg/ml product concentration+dilute E. coli LPS) is run in triplicates and each microtiter plate includes a negative control comprised of plain medium. LPS-induced α TNF production (without inhibitor) is determined by adding E. coli LPS dilutions to RPMI medium.
# 100 μl of the cell suspension are added to each well containing dilutions of either product or control. Cells are incubated with the products for 1 hour in an incubator at 37° C., under 5% CO2 and a moisture saturated atmosphere.
# At the end of the pre-incubation period, 50 μl of serially diluted solutions of E. coli LPS are added. Incubation of mononuclear cells with the product and LPS is extended for 18 hours. At the end of the cell activation period, the microtiter plates are centrifuged, and the supernatants are pooled and frozen at −80° C. as aliquots until time of ELISA assay.
# Concentration of αTNF secreted by mononuclear cells is determined by chemiluminescent ELISA (QuantiGlo #QTAOO R&D kit). 4-fold dilutions of supernatant fluid are dispensed into each well of the microtiter plate to which anti-human αTNF antibodies are bound. The microtiter plate is incubated for 4 hours at room temperature. After washing, peroxidase-conjugated anti-human αTNF antibody is added. Following a 2 hour incubation period and a thorough washing, a chemiluminescent substrate is added and chemilunescence is read after 20 minutes. αTNF content in the supernatant fluid is determined with respect to a standard curve covering the 7000 to 0.7 pg/ml range.
# Inhibition is characterized by the E. coli LPS concentration which elicits 50% production of α TNF during co-incubation in comparison to a control including only RPMI. This concentration increases as product inhibition activity becomes stronger. Knowing inhibition values of α TNF production, this concentration is given by calculating 100-(αTNF production induced by product and LPS)/(αTNF production induced by LPS alone)*100. From these inhibition data, concentration is determined by linear regression along the line segment which joins 2 LPS dilutions giving approx. 50% inhibition.
# Product ability to inhibit α TNF production in mononuclear cells in response to LPS is further characterized by maximum inhibition. […] Results are calculated from a representative experience using all products.
# [3] = system: Limulus Amoebocyte Lysate
Compound,nitric oxide production [1],Max concentration [1],EC50 conc [1],Min concentration [1],max. Inhibition [2],50% inhibition LPS [2],max. Inhibition LPS [2],LAL EU/mg of product [3],LAL ng of LPS equivalent per mg of product [3]
"CCCCCCCCCCCC(=O)O[C@H](CCCCCCCCCCC)CC(=O)NC(CCOP(=O)(O)O)C(=O)NCCC[C@H](COC(=O)CCCCCN)NC(=O)C[C@H](O)CCCCCCCCCCC (mixture of isomers) [OM-197-MP-AC (R/S, R), (3RS,9R)-3-[(R)-3-dodecanoyloxytetradecanoylamino]-4oxo-5-aza-9-[(R)-3-hydroxytetradecanoylamino]-decan-10-ol 1-dihydrogen-phosphate(6-aminohexanoate)]",higher proliferation response as compared to positive control,> 100 µg/mL,> 10.69 µg/mL,1.04 µg/mL,100%,>1 µg/mL,0.00002 µg/mL,0.14 EU/mg of product,0.011 ng of LPS equivalent per mg of product
"CCCCCCCCCCCC(=O)O[C@H](CCCCCCCCCCC)CC(=O)N[C@H](CC(=O)NCCCN)C(=O)NCCC[C@H](CO)NC(=O)C[C@H](O)CCCCCCCCCCC [OM-197-AP, N—[(R)-3-dodecanoyloxytetradecanoyl]-D-aspartic acid, α-N-{(4R)-5-hydroxy-4-[(R)-3-hydroxy-tetradecanoylamino]pentyl}-amide β-N-(3-aminopropyl)amide]",–,> 100 µg/mL,> 13.69 µg/mL,1.87 µg/mL,100%,>1 µg/mL,0.016 µg/mL,<0.5 EU/mg of product,<0.04 ng of LPS equivalent per mg of product
"CCCCCCCCCCCC(=O)O[C@H](CCCCCCCCCCC)CC(=O)N[C@H](CC(=O)N[C@@H](CC(=O)O)C(=O)O)C(=O)NCCC[C@H](CO)NC(=O)C[C@H](O)CCCCCCCCCCC [OM-197-Asp, N—[(R)-3-dodecanoyloxytetradecanoyl]-D-aspartic acid, α-N-{(4R)-5-hydroxy-4-[(R)-3-hydroxytetradecanoylamino]-pentyl}Amide β-N-[(1S)-1,2-Dicarboxyethyl]Amide]",–,51 µg/mL,0.95 µg/mL,0.086 µg/mL,100%,>1 µg/mL,0.00036 µg/mL,<2.5 EU/mg of product,<0.2 ng of LPS equivalent per mg of product
"CCCCCCCCCCCC(=O)O[C@H](CCCCCCCCCCC)CC(=O)N[C@H](CC(=O)N[C@@H](CC(=O)O)C(=O)O)C(=O)NCCC[C@H](COC(=O)CCCCCN)NC(=O)C[C@H](O)CCCCCCCCCCC [OM-197-Asp-AC, N—[(R)-3-dodecanoyloxytetradecanoyl]-D-aspartic acid, α-N-{(4R)-5-(6-aminohexanoyloxy)-4-[(R)-3-hydroxytetradecanoyl-amino]-pentyl}amide β-N-[(1S)-1,2-dicarboxyethyl]Amide]",–,> 100 µg/mL,> 7.04 µg/mL,2.00 µg/mL,100%,0.29 µg/mL,0.0058 µg/mL,2307 EU/mg of product,184.6 ng of LPS equivalent per mg of product
"CCCCCCCCCCCC(=O)O[C@H](CCCCCCCCCCC)CC(=O)N[C@H](CC(=O)O)C(=O)NCCC[C@H](COC(=O)CCCCCN)NC(=O)C[C@H](O)CCCCCCCCCCC [OM-197-MC-AC, N—[(R)-3-dodecanoyloxytetradecanoyl]-D-aspartic acid, α-N-{(4R)-5-(6-aminohexanoyloxy)-4-[(R)-3-hydroxytetradecanoylamino]pentyl}amide]",–,25 µg/mL,4.91 µg/mL,0.91 µg/mL,100%,0.88 µg/mL,0.00003 µg/mL,–,–
